Tests used:
[1] = test system: bovine cartilage explants; assay: GAG release inhibition (IL-1 induced) in bovine cartilage explants, Blyscan colorimetric assay; type: cell-based; settings: for reduction in the GAG release induced by IL-1 (result in words): bovine explants, compared to culture stimulated with IL-1 in the presence of 0.25% DMSO
Procedure: (§1) Glycosaminoglycan (GAG) release is a test used to evaluate the effects of the compounds of the present invention on proteoglycan degradation induced by IL-1.
(§2) Full-depth articular cartilage were dissected from the metacarpophalangeal joints of calves of approximately 6 months of age or human cartilage from joint replacement surgery (approximately 4 mm diameter punches for bovine cartilage and 2 mm for human cartilage). After an equilibration period of 24 hours, explants were cultured for one day in 200 µl DMEM + hydrolyzed lactalbumin + 50 µg/ml vitamin C + penicillin/streptomycin + ITS (Insulin-Transferrin-Selenium) in the presence or absence of the compounds. After one day, GAG release was induced by addition of 10 ng of IL-1. Six days after IL-1 induction, the cartilage and culture medium were collected for analysis. During this six day period the culture medium was replaced every two days.
(§3) GAG release was analyzed using the Blyscan® colorimetric assay (Biocolor, Belfast, UK). To measure GAG content of the cartilage explants, the tissue was digested with papain. The culture medium of day 4, 6 and 8 was pooled before GAG analysis. GAG release was expressed as percentage of the total GAG content of the explants (i.e. GAG medium + GAG in papain digest).
(§4) A control condition with 0.25% DMSO was included because the test compounds were dissolved in DMSO. A condition with glucosamine hydrochloride was added for comparison.
(§5) Each culture condition was performed with cartilage of five different paws/patients to account for biological variation.
(§6) ANOVA followed by LSD post-hoc tests were used for determining differences between groups (p≤ 0.05 was considered significant).
(§7) Results in Tables 3 and 4 were expressed as a percentage reduction in GAG release compared to the control condition with DMSO stimulated with IL-1.

[2] = test system: human cartilage explants; assay: GAG release inhibition (IL-1 induced) in human cartilage explants, Blyscan colorimetric assay; type: cell-based; settings: for reduction of GAG release (result in words): doses 50 µM, 100 µM and 250 µM
Procedure: as §1, §2, §3, §4, §5, §6, §7

[3] = Bos taurus, bovine cartilage explants, percentage reduction in GAG release vs 0.25% DMSO + IL-1 control, * p≤ 0.05, (Inactive) = not statistically significant

| Compound | reduction in the GAG release induced by IL-1 (result in words) [1] | inhibition at 100 µM [1, 3] [%] | further results |
| --- | --- | --- | --- |
| 2-deoxy-2-(pent-4-enoylamino)-3-O-[4-methoxyphenyl(ethoxy-L-prolinyl)]phosphoramidate-D-glucopyranose [Compound 87] | statistically significant reduction of the GAG release |  | GAG release inhibition ([1]; 250 µM, bovine cartilage explants, percentage reduction in GAG release vs 0.25% DMSO + IL-1 control, * p≤ 0.05, (Inactive) = not statistically significant): 33.3%* |
| COc1ccc(OP(=O)(O[C@H]2[C@H](O)[C@@H](CO)OC(O)[C@@H]2NC(C)=O)N2CCC[C@H]2C(=O)OCc2ccccc2)cc1 (stereo partly drawn) [Compound 1, 2-acetamido-2-deoxy-3-O-[4-methoxyphenyl(benzyloxy-L-prolinyl)]phosphoramidate-D-glucopyranose] | statistically significant reduction of the GAG release |  | reduction of GAG release (result in words) [2]: statistically significant activity |
| COc1ccc(OP(=O)(N[C@H](C(=O)OCc2ccccc2)C(C)C)O[C@H]2[C@H](O)[C@@H](CO)OC(O)[C@@H]2NC(C)=O)cc1 (stereo partly drawn) [Compound 16, 2-acetamido-2-deoxy-3-O-[4-methoxyphenyl(benzyloxy-L-valinyl)]phosphoramidate-D-glucopyranose] | statistically significant reduction of the GAG release | 27 |  |
| CCOC(=O)[C@@H]1CCCN1P(=O)(Oc1ccc(OC)cc1)O[C@H]1[C@H](O)[C@@H](CO)OC(O)[C@@H]1NC(C)=O (some centres unmarked) [Compound 31] | statistically significant reduction of the GAG release |  |  |
| CCOC(=O)[C@@H]1CCCN1P(=O)(Oc1ccc(OC)cc1)O[C@H]1[C@H](O)[C@@H](NC(C)=O)C(O)O[C@@H]1CO (stereo partly drawn) [Compound 32, 2-acetamido-2-deoxy-4-O-[4-methoxyphenyl(ethoxy-L-prolinyl)]phosphoramidate-D-glucopyranose] | statistically significant reduction of the GAG release |  |  |
| CCC(C)OC(=O)[C@@H](NP(=O)(Oc1ccc(OC)cc1)O[C@H]1[C@H](O)[C@@H](CO)OC(O)[C@@H]1NC(C)=O)C(C)C (stereo partly drawn) [Compound 58, 2-acetamido-2-deoxy-3-O-[4-methoxyphenyl(2-butoxy-L-valinyl)]phosphoramidate-D-glucopyranose] | statistically significant reduction of the GAG release | 41 |  |
| C=CCCC(=O)N[C@H]1C(O)O[C@H](CO)[C@@H](O)[C@@H]1OP(=O)(N[C@H](C(=O)OCc1ccccc1)C(C)C)Oc1ccc(OC)cc1 (stereo partly drawn) [Compound 61, 2-deoxy-2-(pent-4-enoylamino)-3-O-[4-methoxyphenyl(benzyloxy-L-valinyl)]phosphoramidate-D-glucopyranose] | statistically significant reduction of the GAG release | 47 |  |
| COc1ccc(OP(=O)(N[C@H](C(=O)OCc2ccccc2)C(C)C)O[C@H]2[C@H](O)[C@@H](CO)OC(O)[C@@H]2N)cc1 (stereo partly drawn) [Compound 63, 2-amino-2-deoxy-3-O-[4-methoxyphenyl(benzyloxy-L-valinyl)]phosphoramidate-D-glucopyranose] | statistically significant reduction of the GAG release | 31 |  |
| CCCCCOC(=O)[C@@H]1CCCN1P(=O)(Oc1ccc(OC)cc1)O[C@H]1[C@H](O)[C@@H](NC(C)=O)C(O)O[C@@H]1CO (stereo partly drawn) [Compound 69, 2-acetamido-2-deoxy-4-0-[4-methoxyphenyl(n-pentoxy-L-prolinyl)]phosphoramidate-D-glucopyranose] | statistically significant reduction of the GAG release |  |  |
| CC(=O)N[C@H]1C(O)O[C@H](CO)[C@@H](O)[C@@H]1OP(=O)(Oc1ccccc1)N1CCC[C@H]1C(=O)OCc1ccccc1 (stereo partly drawn) [Compound 74, 2-acetamido-2-deoxy-3-O-[phenyl(benzyloxy-L-prolinyl)]phosphoramidate-D-glucopyranose] | statistically significant reduction of the GAG release |  |  |
| CCOC(=O)[C@@H]1CCCN1P(=O)(Oc1cccc2ccccc12)O[C@H]1[C@H](O)[C@@H](CO)OC(O)[C@@H]1NC(C)=O (stereo partly drawn) [Compound 80, 2-acetamido-2-deoxy-3-O-[1-naphtyl(ethoxy-L-prolinyl)]phosphoramidate-D-glucopyranose] | statistically significant reduction of the GAG release |  |  |
| Cl.N[C@H]1C(O)O[C@H](CO)[C@@H](O)[C@@H]1O (some centres unmarked) [Glucosamine Hydrochloride] | did not caused any statistically significant reduction | 0 | inhibition at 250 µM ([1]; Bos taurus, 250 µM, bovine cartilage explants, percentage reduction in GAG release vs 0.25% DMSO + IL-1 control, * p≤ 0.05, (Inactive) = not statistically significant): 0%; inhibition at 50 µM ([2]; 50 µM, percentage reduction in GAG release vs 0.25% DMSO + IL-1 control, * p≤ 0.05, (Inactive) = not statistically significant): 7.8%; inhibition at 100 µM ([2]; 100 µM, percentage reduction in GAG release vs 0.25% DMSO + IL-1 control, * p≤ 0.05, (Inactive) = not statistically significant): 11.9%; inhibition at 250 µM ([2]; 250 µM, percentage reduction in GAG release vs 0.25% DMSO + IL-1 control, * p≤ 0.05, (Inactive) = not statistically significant): 11.9%; reduction of GAG release (result in words) [2]: inactive |
| COc1ccc(OP(=O)(NC(C(=O)OCc2ccccc2)C(C)C)OC[C@H]2OC(O)[C@H](NC(C)=O)[C@@H](O)[C@@H]2O)cc1 (some centres unmarked) [Reference compound 4, reference compound] |  | 3 |  |
| COc1ccc(OP(=O)(NC(C(=O)OCc2ccccc2)C(C)C)OC[C@H]2OC(O)[C@H](N)[C@@H](O)[C@@H]2O)cc1 (some centres unmarked) [Reference compound 5, reference compound] |  | 4 |  |

Source: EP2471802A1, “Phosphoramidates of monosaccharides” (Bioiberica, S.A., priority 2010, dated 2012)
